The target in this experiment is recombinant human AMPK complex 1 (containing α1β1γ1) (Homo sapiens, UniProt Q13131+Q9Y478). Briefly: […] (in vitro AMPK activation assay). In kind it is biochemical. Conditions: recombinant human AMPK complex 1 (α1β1γ1); for Emax: basal activity subtracted, read-out: % Maximum AMP Activation of human AMPK Complex 1.

For orientation: EC50 means the concentration that produces a half-maximal response.

Counter-ions that a name gives are not always drawn.

Chain of recombinant human AMPK complex 1 (containing α1β1γ1) (Q13131 whole entry): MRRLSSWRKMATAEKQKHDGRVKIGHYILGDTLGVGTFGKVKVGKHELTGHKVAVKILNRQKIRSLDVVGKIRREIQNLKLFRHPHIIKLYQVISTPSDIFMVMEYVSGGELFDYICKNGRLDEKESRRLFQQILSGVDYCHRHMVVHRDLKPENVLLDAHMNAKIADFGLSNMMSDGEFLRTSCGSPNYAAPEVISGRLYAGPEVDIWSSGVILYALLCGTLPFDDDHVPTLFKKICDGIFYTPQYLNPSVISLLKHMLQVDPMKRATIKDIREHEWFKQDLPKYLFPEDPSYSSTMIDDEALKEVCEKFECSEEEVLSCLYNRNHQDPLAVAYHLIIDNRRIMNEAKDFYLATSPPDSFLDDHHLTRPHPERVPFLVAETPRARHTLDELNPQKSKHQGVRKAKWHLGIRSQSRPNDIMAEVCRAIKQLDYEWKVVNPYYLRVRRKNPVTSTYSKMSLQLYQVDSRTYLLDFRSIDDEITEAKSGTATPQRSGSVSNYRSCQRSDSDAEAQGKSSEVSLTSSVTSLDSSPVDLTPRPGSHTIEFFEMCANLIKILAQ
Chain of recombinant human AMPK complex 1 (containing α1β1γ1) (Q9Y478 whole entry): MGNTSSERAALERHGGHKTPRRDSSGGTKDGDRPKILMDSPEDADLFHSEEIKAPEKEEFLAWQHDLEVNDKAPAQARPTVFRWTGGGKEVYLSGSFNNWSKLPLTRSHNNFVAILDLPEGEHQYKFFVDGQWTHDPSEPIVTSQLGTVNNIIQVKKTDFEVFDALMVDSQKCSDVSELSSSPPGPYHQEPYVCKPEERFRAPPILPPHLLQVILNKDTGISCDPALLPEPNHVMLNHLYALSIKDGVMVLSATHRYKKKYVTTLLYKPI
Chain of recombinant human AMPK complex 1 (containing α1β1γ1) (P54619 whole entry partner): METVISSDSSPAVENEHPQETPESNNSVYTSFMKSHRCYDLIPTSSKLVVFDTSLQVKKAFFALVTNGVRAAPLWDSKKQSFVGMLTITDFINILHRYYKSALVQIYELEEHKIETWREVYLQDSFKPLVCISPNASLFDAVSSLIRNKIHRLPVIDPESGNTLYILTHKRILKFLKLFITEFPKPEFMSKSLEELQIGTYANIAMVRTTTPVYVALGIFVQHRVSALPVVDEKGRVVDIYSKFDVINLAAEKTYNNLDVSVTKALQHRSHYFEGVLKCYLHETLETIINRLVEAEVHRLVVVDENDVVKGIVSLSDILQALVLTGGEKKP

As for `Cc1ccc(Oc2nc3cc(C#Cc4ccc(=O)[nH]c4)c(Cl)cc3[nH]2)cc1C(=O)O` [Example 128, 5-[6-Chloro-5-(6-oxo-1,6-dihydro-pyridin-3-ylethynyl)-1H-benzoimidazol-2-yloxy]-2-methyl-benzoic acid], the Emax was more than 80%.
Take `COc1ccc(C#Cc2cc3nc(Oc4ccc(C)c(C(=O)O)c4)[nH]c3cc2Cl)cn1` [Example 129, 5-[6-Chloro-5-(6-methoxy-pyridin-3-ylethynyl)-1H-benzoimidazol-2-yloxy]-2-methyl-benzoic acid]: the Emax is more than 80%.
Same read-out and setting: to `Cc1ccc(Oc2nc3cc(C#CC4CCCC4O)c(Cl)cc3[nH]2)cc1C(=O)O` (stereo not shown) [Example 130, 5-[6-Chloro-5-(2-hydroxy-cyclopentylethynyl)-1H-benzoimidazol-2-yloxy]-2-methyl-benzoic acid] belongs more than 80%; to `Cc1ccc(Oc2nc3cc(C#Cc4cccnc4)c(Cl)cc3[nH]2)cc1C(=O)O` [Example 131, 5-(6-Chloro-5-pyridin-3-ylethynyl-1H-benzoimidazol-2-yloxy)-2-methyl-benzoic acid], more than 80%; to `Cc1ccc(C#Cc2cc3nc(Oc4ccc(C)c(C(=O)O)c4)[nH]c3cc2Cl)cn1` [Example 132, 5-[6-Chloro-5-(6-methyl-pyridin-3-ylethynyl)-1H-benzoimidazol-2-yloxy]-2-methyl-benzoic acid], more than 80%.
On the same count and under the same terms, to `COC(=O)c1cc(Oc2nc3cc(C#Cc4cccnc4)c(Cl)cc3[nH]2)ccc1C` [Example 133, 5-(6-Chloro-5-pyridin-3-ylethynyl-1H-benzoimidazol-2-yloxy)-2-methyl-benzoic acid methyl ester] belongs more than 80%.
The same measure, in the same setting: to `Cc1ccc(Oc2nc3cc(C#Cc4cncn4C)c(Cl)cc3[nH]2)cc1C(=O)O` [Example 134, 5-[6-Chloro-5-(3-methyl-3H-imidazol-4-ylethynyl)-1H-benzoimidazol-2-yloxy]-2-methyl-benzoic acid] belongs more than 80%.
For `Cc1ccc(Oc2nc3cc(C#CC4(O)CCCC4)c(Cl)cc3[nH]2)cc1C(=O)O` [Example 135, 5[6-Chloro-5-(1-hydroxy-cyclopentylethynyl)-1H-benzoimidazol-2-yloxy]-2-methyl-benzoic acid], the Emax is more than 80%.
Still for that read-out and setting: to `COC(=O)c1cc(Oc2nc3cc(C#Cc4cncn4C)c(Cl)cc3[nH]2)ccc1C` [Example 136, 5-[6-Chloro-5-(3-methyl-3H-imidazol-4-ylethynyl)-1H-benzoimidazol-2-yloxy]-2-methyl-benzoic acid methyl ester] belongs more than 80%; to `COC(=O)c1cc(Oc2nc3cc(C#CC4(O)CCCC4)c(Cl)cc3[nH]2)ccc1C` [Example 137, 5-[6-Chloro-5-(1-hydroxy-cyclopentylethynyl)-1H-benzoimidazol-2-yloxy]-2-methyl-benzoic acid methyl ester], more than 80%.
Still for that read-out and setting: to `Cc1ccc(Oc2nc3cc(C#CC4CCNC4)c(Cl)cc3[nH]2)cc1C(=O)O` (stereo not shown) [Example 138, 5-(6-Chloro-5-pyrrolidin-3-ylethynyl-1H-benzoimidazol-2-yloxy)-2-methyl-benzoic acid] belongs more than 80%; to `O=C(O)c1cccc(Nc2nc3cc(C#Cc4ccccc4)c(Cl)cc3[nH]2)c1` [Example 139, 3-(6-Chloro-5-phenylethynyl-1H-benzoimidazol-2-ylamino)-benzoic acid], more than 80%.
With `Cc1ccc(Oc2nc3cc(-c4ccc5[nH]cnc5c4)c(Cl)cc3[nH]2)cc1C(=O)O` [Example 140, 2-(3-Carboxy-4-methyl-phenoxy)-6-chloro-1H,1′H-[5,5′]bibenzoimidazolyl-3-ium; chloride], the Emax was more than 80%.
Same read-out and setting: to `Cc1ccc(Oc2nc3cc(-c4ccc5onc(C)c5c4)c(Cl)cc3[nH]2)cc1C(=O)O` [Example 141, 5-[6-Chloro-5-(3-methyl-benzo[d]isoxazol-5-yl)-1H-benzoimidazol-2-yloxy]-2-methyl-benzoic acid] belongs more than 80%; to `Cc1ccc(Oc2nc3cc(-c4ccc5c(cnn5C)c4)c(Cl)cc3[nH]2)cc1C(=O)O` [Example 142, 5-[6-Chloro-5-(1-methyl-1H-indazol-5-yl)-1H-benzoimidazol-2-yloxy]-2-methyl-benzoic acid], more than 80%; to `Cc1ccc(Oc2nc3cc(-c4cnc5c(c4)OCCN5C)c(Cl)cc3[nH]2)cc1C(=O)O` [Example 143, 2-(3-carboxy-4-methylphenoxy)-6-chloro-5-(4-methyl-3,4-dihydro-2H-pyrido[3,2-b] [1,4]oxazin-7-yl)-1H-3,1-benzimidazol-3-ium trifluoroacetate], more than 80%.
Same read-out and setting: to `Cc1ccc(Oc2nc3cc(-c4cnc5c(ccn5C)c4)c(Cl)cc3[nH]2)cc1C(=O)O` [Example 144, 2-(3-carboxy-4-methylphenoxy)-6-chloro-5-(1-methyl-1H-pyrrolo[2,3-b]pyridin-5-yl)-1H-3,1-benzimidazol-3-ium chloride] belongs more than 80%.
Same read-out and setting: to `COc1ccc2cc(-c3cc4nc(Oc5ccc(C)c(C(=O)O)c5)[nH]c4cc3Cl)ccc2c1` [Example 145, 5-[6-Chloro-5-(6-methoxy-naphthalen-2-yl)-1H-benzoimidazol-2-yloxy]-2-methyl-benzoic acid] belongs more than 80%; to `COc1ccc2cc(-c3cc4nc(Oc5ccc(C)c(C(=O)O)c5)[nH]c4cc3Cl)ccc2n1` [Example 146, 5-[6-Chloro-5-(2-methoxy-quinolin-6-yl)-1H-benzoimidazol-2-yloxy]-2-methyl-benzoic acid], more than 80%; to `Cc1ccc(Oc2nc3cc(-c4ccc5c(c4)[nH]c4ccccc45)c(Cl)cc3[nH]2)cc1C(=O)O` [Example 147, 5-[5-(9H-Carbazol-2 yl)-6-chloro-1H-benzoimidazol-2-yloxy]-2-methyl-benzoic acid], more than 80%.
On to `Cc1ccc(Oc2nc3cc(-c4cnc5ccccc5c4)c(Cl)cc3[nH]2)cc1C(=O)O` [Example 148, 2-(3-carboxy-4-methylphenoxy)-6-chloro-5-quinolin-3-yl-1H-3,1-benzimidazol-3-ium chloride], for which the Emax was more than 80%.
Same read-out and setting: to `Cc1ccc(Oc2nc3cc(-c4ccc5nnn(C)c5c4)c(Cl)cc3[nH]2)cc1C(=O)O` [Example 149, 5-[6-Chloro-5-(3-methyl-3H-benzotriazol-5-yl)-1H-benzoimidazol-2-yloxy]-2-methyl-benzoic acid] belongs more than 80%; to `Cc1ccc(Oc2nc3cc(-c4ccc5ncccc5c4)c(Cl)cc3[nH]2)cc1C(=O)O` [Example 150, 2-(3-carboxy-4-methylphenoxy)-6-chloro-5-quinolin-6-yl-1H-3,1-benzimidazol-3-ium chloride], more than 80%.
Consider `Cc1ccc(Oc2nc3cc(-c4ccc5c(c4)OCCN5C)c(Cl)cc3[nH]2)cc1C(=O)O` [Example 151, 2-(3-carboxy-4-methylphenoxy)-6-chloro-5-(4-methyl-3,4-dihydro-2H-1,4-benzoxazin-7-yl)-1H-3,1-benzimidazol-3-ium chloride], for which the EC50 (read-out: EC50) was found to be 22 nM.
On to `Cc1ccc(Oc2nc3cc(-c4ccc5nncn5c4)c(Cl)cc3[nH]2)cc1C(=O)O` [Example 152, 5-(6-Chloro-5-[1,2,4]triazolo[4,3-a]pyridin-6-yl-1H-benzoimidazol-2-yloxy)-2-methyl-benzoic acid], for which the Emax was more than 80%.

These data come from patent US8394969B2, “Cyclic benzimidazole derivatives useful as anti-diabetic agents” (Merck Sharp & Dohme Corp., priority 2008, dated 2013).
